Experimental data: patent US20230233569A1 (Revolution Medicines, Inc., priority 2020, published 2023)
Read-outs that look alike come from different tables or passages of the source.

What was measured:
[1] = target: KRAS G13D (Homo sapiens, UniProt P01116+P62937, G13D); test: Ras-Raf disruption / FRET / MOA assay (BRAF RBD); type: biochemical; settings: with Cyclophilin A
How it was run: (§1)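 Compound-induced Ras–Cyclophilin A ternary complex disrupting BRAF RBD binding, read as IC50 from reduced TR-FRET ratio relative to DMSO. Final: Ras-GMPPNP 12.5 nM, BRAF RBD 50 nM, Cyclophilin A 25 μM, top compound 30 μM (3-fold, 10 points); 3 h at 25 °C, then 1.5 h with detection antibodies.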

[2] = target: KRAS G12S (Homo sapiens, UniProt P01116+P62937, G12S); test: Ras-Raf disruption / FRET / MOA assay (BRAF RBD); type: biochemical; settings: with Cyclophilin A
How it was run: as §1

[3] = target: KRAS G12D (Homo sapiens, UniProt P01116+P62937, G12D); test: Ras-Raf disruption / FRET / MOA assay (BRAF RBD); type: biochemical; settings: with Cyclophilin A
How it was run: as §1

[4] = target: KRAS G12V (Homo sapiens, UniProt P01116+P62937, G12V); test: Ras-Raf disruption / FRET / MOA assay (BRAF RBD); type: biochemical; settings: with Cyclophilin A
How it was run: as §1

[5] = target: KRAS Q61H (Homo sapiens, UniProt P01116+P62937, Q61H); test: Ras-Raf disruption / FRET / MOA assay (BRAF RBD); type: biochemical
How it was run: as §1

[6] = target: NRAS WT (Homo sapiens, UniProt P01111+P62937); test: Ras-Raf disruption / FRET / MOA assay (BRAF RBD); type: biochemical
How it was run: as §1

[7] = target: NRAS Q61K (Homo sapiens, UniProt P01111+P62937, Q61K); test: Ras-Raf disruption / FRET / MOA assay (BRAF RBD); type: biochemical
How it was run: as §1

[8] = target: NRAS Q61R (Homo sapiens, UniProt P01111+P62937, Q61R); test: Ras-Raf disruption / FRET / MOA assay (BRAF RBD); type: biochemical
How it was run: as §1

[9] = target: KRAS G13C (Homo sapiens, UniProt P01116+P62937, G13C); test: Ras-Raf disruption / FRET / MOA assay (BRAF RBD); type: biochemical; settings: with Cyclophilin A
How it was run: as §1

[10] = target: NRAS G12C (Homo sapiens, UniProt P01111+P62937, G12C); test: Ras-Raf disruption / FRET / MOA assay (BRAF RBD); type: biochemical
How it was run: as §1

[11] = target: KRAS WT (Homo sapiens, UniProt P01116+P62937); test: Ras-Raf disruption / FRET / MOA assay (BRAF RBD); type: biochemical; settings: with Cyclophilin A
How it was run: as §1

[12] = system: AsPC-1 (K-Ras G12D); test: Potency assay: pERK; type: cell-based; settings: Homo sapiens, ASPC1, read-out: pERK EC50
[13] = system: AsPC-1 (K-Ras G12D); test: CellTiter-Glo cell viability assay; type: cell-based; settings: Homo sapiens, ASPC1, 120 h, read-out: AsPC-1 Cell Viability assay data IC50, K-Ras G12D, 5-day treatment
How it was run: (§2)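 Percent-of-DMSO luminescence values (CellTiter-Glo, day 5, plates equilibrated ~30 minutes at ambient temperature) were curve-fitted using a 4-parameter logistic equation; compounds had been added straight into wells containing the cells.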

[14] = system: NCI-H358 (K-Ras G12C); test: CellTiter-Glo cell viability assay; type: cell-based; settings: Homo sapiens, NCI-H358, 120 h, read-out: H358 Cell Viability assay data IC50, K-Ras G12C, 5-day treatment
How it was run: as §2

[15] = target: KRAS G12C (Homo sapiens, UniProt P01116+P62937, G12C); test: Ras-Raf disruption / FRET / MOA assay (BRAF RBD); type: biochemical; settings: with Cyclophilin A
How it was run: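 TR-FRET read-out after 1.5 h with anti-His Eu-W1024 (10 nM) and anti-GST APC (50 nM), following 3 h at 25 °C of compound (top 30 μM, 3-fold, 10 points) with 25 μM Cyclophilin A, 12.5 nM GMPPNP-loaded K-Ras G12C and 50 nM BRAF RBD; IC50 reported.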

[16] = KRAS G13D FRET data IC50, Ras-Raf disruption
[17] = KRAS G12S FRET data IC50, Ras-Raf disruption
[18] = KRAS G12D FRET data IC50, Ras-Raf disruption
[19] = KRAS G12V FRET data IC50, Ras-Raf disruption
[20] = KRAS G13C FRET data IC50, Ras-Raf disruption
[21] = NRAS G12C FRET data IC50, NRAS G12C
[22] = KRAS WT FRET data IC50, Ras-Raf disruption
[23] = KRAS G12C FRET data IC50, Ras-Raf disruption

KRAS G12S, sequence (P01116 1-169 isoform P01116-2 G12S limits assumed): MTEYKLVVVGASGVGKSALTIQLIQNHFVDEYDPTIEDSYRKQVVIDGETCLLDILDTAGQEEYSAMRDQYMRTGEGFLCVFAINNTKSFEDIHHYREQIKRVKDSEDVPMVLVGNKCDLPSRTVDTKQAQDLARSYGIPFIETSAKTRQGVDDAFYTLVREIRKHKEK
KRAS G12S, sequence (P62937 whole entry): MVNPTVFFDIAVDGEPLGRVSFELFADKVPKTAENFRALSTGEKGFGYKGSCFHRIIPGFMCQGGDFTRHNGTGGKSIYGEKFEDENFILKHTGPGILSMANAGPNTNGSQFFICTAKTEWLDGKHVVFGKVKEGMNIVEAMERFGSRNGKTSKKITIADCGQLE
KRAS G13C, sequence (P01116 1-169 isoform P01116-2 G13C limits assumed): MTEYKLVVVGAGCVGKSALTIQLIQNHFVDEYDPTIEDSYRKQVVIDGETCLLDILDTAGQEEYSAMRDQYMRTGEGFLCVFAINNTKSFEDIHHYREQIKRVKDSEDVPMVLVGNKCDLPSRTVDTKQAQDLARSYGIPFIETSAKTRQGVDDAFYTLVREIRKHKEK
KRAS G13C, sequence (P62937 whole entry): as the sequence (P62937 whole entry) above
KRAS G12D, sequence (P01116 1-169 isoform P01116-2 G12D limits assumed): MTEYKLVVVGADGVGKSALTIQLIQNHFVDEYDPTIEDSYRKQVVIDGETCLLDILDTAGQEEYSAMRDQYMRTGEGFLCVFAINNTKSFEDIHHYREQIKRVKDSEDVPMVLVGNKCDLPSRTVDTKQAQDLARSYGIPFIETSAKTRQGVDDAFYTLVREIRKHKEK
KRAS G12D, sequence (P62937 whole entry): as the sequence (P62937 whole entry) above
KRAS G13D, sequence (P01116 1-169 isoform P01116-2 G13D limits assumed): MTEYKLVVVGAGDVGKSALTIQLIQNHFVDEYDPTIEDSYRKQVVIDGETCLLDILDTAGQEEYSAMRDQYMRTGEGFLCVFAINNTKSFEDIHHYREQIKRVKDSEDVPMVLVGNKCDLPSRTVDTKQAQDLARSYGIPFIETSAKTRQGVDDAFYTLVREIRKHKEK
KRAS G13D, sequence (P62937 whole entry): as the sequence (P62937 whole entry) above
NRAS Q61K, sequence (P01111 whole entry Q61K): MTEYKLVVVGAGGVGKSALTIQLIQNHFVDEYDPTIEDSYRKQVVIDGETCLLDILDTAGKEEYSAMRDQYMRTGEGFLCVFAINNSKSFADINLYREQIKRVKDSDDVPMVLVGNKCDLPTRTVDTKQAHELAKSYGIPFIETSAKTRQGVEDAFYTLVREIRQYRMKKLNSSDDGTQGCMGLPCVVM
NRAS Q61K, sequence (P62937 whole entry): as the sequence (P62937 whole entry) above
KRAS G12C, sequence (P01116 1-169 isoform P01116-2 G12C limits assumed): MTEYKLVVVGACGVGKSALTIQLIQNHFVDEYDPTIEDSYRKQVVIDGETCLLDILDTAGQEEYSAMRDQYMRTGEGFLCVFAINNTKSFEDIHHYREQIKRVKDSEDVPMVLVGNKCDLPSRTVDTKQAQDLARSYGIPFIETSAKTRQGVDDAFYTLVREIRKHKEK
KRAS G12C, sequence (P62937 whole entry): as the sequence (P62937 whole entry) above
NRAS G12C, sequence (P01111 whole entry G12C): as the sequence (P01111 whole entry Q61K) above, with G12C, K61Q counted along it
NRAS G12C, sequence (P62937 whole entry): as the sequence (P62937 whole entry) above
KRAS WT, sequence (P01116 1-169 isoform P01116-2 limits assumed): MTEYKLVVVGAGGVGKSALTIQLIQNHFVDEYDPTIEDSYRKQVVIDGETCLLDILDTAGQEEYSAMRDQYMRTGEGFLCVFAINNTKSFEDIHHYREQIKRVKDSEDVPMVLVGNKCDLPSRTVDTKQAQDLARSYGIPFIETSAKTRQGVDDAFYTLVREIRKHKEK
KRAS WT, sequence (P62937 whole entry): as the sequence (P62937 whole entry) above
NRAS WT, sequence (P01111 whole entry): as the sequence (P01111 whole entry Q61K) above, with K61Q counted along it
NRAS WT, sequence (P62937 whole entry): as the sequence (P62937 whole entry) above
KRAS Q61H, sequence (P01116 1-169 isoform P01116-2 Q61H limits assumed): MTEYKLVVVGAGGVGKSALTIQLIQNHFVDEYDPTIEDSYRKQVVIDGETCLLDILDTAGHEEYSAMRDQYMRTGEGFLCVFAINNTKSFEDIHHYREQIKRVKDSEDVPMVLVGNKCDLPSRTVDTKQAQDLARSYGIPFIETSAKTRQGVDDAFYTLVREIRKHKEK
KRAS Q61H, sequence (P62937 whole entry): as the sequence (P62937 whole entry) above
KRAS G12V, sequence (P01116 1-169 isoform P01116-2 G12V limits assumed): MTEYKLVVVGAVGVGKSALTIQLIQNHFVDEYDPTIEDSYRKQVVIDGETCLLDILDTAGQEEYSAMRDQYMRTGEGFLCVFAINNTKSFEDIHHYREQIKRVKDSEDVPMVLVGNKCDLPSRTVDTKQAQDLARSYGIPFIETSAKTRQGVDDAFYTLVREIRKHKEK
KRAS G12V, sequence (P62937 whole entry): as the sequence (P62937 whole entry) above
NRAS Q61R, sequence (P01111 whole entry Q61R): as the sequence (P01111 whole entry Q61K) above, with K61R counted along it
NRAS Q61R, sequence (P62937 whole entry): as the sequence (P62937 whole entry) above

| Structure (SMILES) | IC50 [1, 16] | IC50 [2, 17] | IC50 [3, 18] | IC50 [4, 19] | IC50 [5] | IC50 [6] | IC50 [7] | IC50 [8] | IC50 [9, 20] | IC50 [10, 21] | IC50 [11, 22] | EC50 [12] | IC50 [13] | IC50 [14] | IC50 [15, 23] | further results |
| --- | --- | --- | --- | --- | --- | --- | --- | --- | --- | --- | --- | --- | --- | --- | --- | --- |
| CCn1c(-c2cccnc2[C@H](C)OC)c2c3cc(ccc31)-c1cc(O)cc(c1)C[C@H](NC(=O)[C@H](C(C)C)N(C)C(=O)CNC(=O)[C@@H]1N[C@@H]1C1CC1)C(=O)N1CCC[C@H](N1)C(=O)OCC(C)(C)C2 [Example 141] | 100 to 1000 nM | 10 to 100 nM | 10 to 100 nM | 10 to 100 nM | 10 to 100 nM | 10 to 100 nM | 100 to 1000 nM | 100 to 1000 nM | 10 to 100 nM | 10 to 100 nM | 10 to 100 nM | < 5000 nM | 100 to 1000 nM | 100 to 1000 nM | 10 to 100 nM | – |
| CCn1c(-c2cccnc2[C@H](C)OC)c2c3cc(ccc31)-c1cc(O)cc(c1)C[C@H](NC(=O)[C@H](C(C)C)N(C)C(=O)CN(C)C(=O)[C@@H]1CN1CCOC)C(=O)N1CCC[C@H](N1)C(=O)OCC(C)(C)C2 (stereo partly drawn) [Example 160] | 100 to 1000 nM | 10 to 100 nM | 100 to 1000 nM | 10 to 100 nM | – | – | – | – | 10 to 100 nM | < 10 nM | 10 to 100 nM | < 5000 nM | 100 to 1000 nM | < 10 nM | 10 to 100 nM | – |
| CCn1c(-c2cccnc2[C@H](C)OC)c2c3cc(ccc31)-c1cc(O)cc(c1)C[C@H](NC(=O)[C@H](C(C)C)N(C)C(=O)CN(C)C(=O)[C@H]1CN1CCCOC)C(=O)N1CCC[C@H](N1)C(=O)OCC(C)(C)C2 (stereo partly drawn) [Example 201] | 100 to 1000 nM | 10 to 100 nM | 100 to 1000 nM | 10 to 100 nM | – | – | – | – | 10 to 100 nM | < 10 nM | 10 to 100 nM | < 5000 nM | 100 to 1000 nM | < 10 nM | < 10 nM | – |
| CCn1c(-c2cc(N3CCN(C)CC3)cnc2[C@H](C)OC)c2c3cc(ccc31)-c1cc(O)cc(c1)C[C@H](NC(=O)[C@H](C1CCCC1)N(C)C(=O)CN(C)C(=O)[C@H]1CN1)C(=O)N1CCC[C@H](N1)C(=O)OCC(C)(C)C2 [Example 209, (2R)—N-(2-(((1S)-1-cyclopentyl-2-(((6^3S,4S)-1^1-ethyl-2^5-hydroxy-1^2-(2-((S)-1-methoxyethyl)-5-(4-methylpiperazin-1-yl)pyridin-3-yl)-10,10-dimethyl-5,7-dioxo-6^1,6^2,6^3,6^4,6^5,6^6-hexahydro-1^1H-8-oxa-1(5,3)-indola-6(1,3)-pyridazina-2(1,3)-benzenacycloundecaphane-4-yl)amino)-2-oxoethyl)(methyl)amino)-2-oxoethyl)-N-methylaziridine-2-carboxamide] | 10 to 100 nM | 10 to 100 nM | 10 to 100 nM | 10 to 100 nM | < 10 nM | 10 to 100 nM | 100 to 1000 nM | 10 to 100 nM | < 10 nM | < 10 nM | 10 to 100 nM | < 5000 nM | < 10 nM | < 10 nM | < 10 nM | – |
| CCn1c(-c2cccnc2[C@H](C)OC)c2c3cc(ccc31)-c1cc(O)cc(c1)C[C@H](NC(=O)[C@H](C1CCCC1)N1CC[C@]3(CCN(C(=O)[C@@H]4N[C@@H]4C4CC4)C3)C1=O)C(=O)N1CCC[C@H](N1)C(=O)OCC(C)(C)C2 [Example 214, (2S)-2-cyclopentyl-2-((S)-7-((2R,3R)-3-cyclopropylaziridine-2-carbonyl)-1-oxo-2,7-diazaspiro[4.4]nonan-2-yl)-N-((6^3S,4S)-1^1-ethyl-2^5-hydroxy-1^2-(2-((S)-1-methoxyethyl)pyridin-3-yl)-10,10-dimethyl-5,7-dioxo-6^1,6^2,6^3,6^4,6^5,6^6-hexahydro-1^1H-8-oxa-1(5,3)-indola-6(1,3)-pyridazina-2(1,3)-benzenacycloundecaphane-4-yl)acetamide] | – | – | – | – | – | – | – | – | – | – | – | < 5000 nM | 10 to 100 nM | 10 to 100 nM | – | IC50 ([1]; Ras-Raf disruption, read-out: KRAS G13D FRET data IC50): 100 to 1000 nM; IC50 ([2]; Ras-Raf disruption, read-out: KRAS G12S FRET data IC50): 10 to 100 nM; IC50 ([3]; Ras-Raf disruption, read-out: KRAS G12D FRET data IC50): < 10 nM; IC50 ([4]; Ras-Raf disruption, read-out: KRAS G12V FRET data IC50): 10 to 100 nM; IC50 ([5]; KRAS Q61H, read-out: KRAS Q61H FRET data IC50): 10 to 100 nM; IC50 ([6]; NRAS WT, read-out: NRAS WT FRET data IC50): 10 to 100 nM; IC50 ([7]; NRAS Q61K, read-out: NRAS Q61K FRET data IC50): 100 to 1000 nM; IC50 ([8]; NRAS Q61R, read-out: NRAS Q61R FRET data IC50): 100 to 1000 nM; IC50 ([9]; Ras-Raf disruption, read-out: KRAS G13C FRET data IC50): 10 to 100 nM; IC50 ([10]; NRAS G12C, read-out: NRAS G12C FRET data IC50): 10 to 100 nM; IC50 ([11]; Ras-Raf disruption, read-out: KRAS WT FRET data IC50): 10 to 100 nM; IC50 ([15]; Ras-Raf disruption, read-out: KRAS G12C FRET data IC50): 10 to 100 nM |
| CCn1c(-c2cccnc2[C@H](C)OC)c2c3cc(ccc31)-c1cc(O)cc(c1)C[C@H](NC(=O)[C@H](C(C)C)N(C)C(=O)CN(C)C(=O)[C@@]1(C)CN1)C(=O)N1CCC[C@H](N1)C(=O)OCC(C)(C)C2 [Example 256] | 10 to 100 nM | 10 to 100 nM | 10 to 100 nM | 10 to 100 nM | 10 to 100 nM | 10 to 100 nM | 100 to 1000 nM | 100 to 1000 nM | < 10 nM | 10 to 100 nM | 10 to 100 nM | < 5000 nM | 100 to 1000 nM | 10 to 100 nM | 10 to 100 nM | – |
| CCn1c(-c2cccnc2[C@H](C)OC)c2c3cc(ccc31)-c1cc(O)cc(c1)C[C@H](NC(=O)[C@H](C(C)C)N(C)C(=O)CN(C)C(=O)[C@]1(C)CN1)C(=O)N1CCC[C@H](N1)C(=O)OCC(C)(C)C2 [Example 257] | 10 to 100 nM | 10 to 100 nM | 100 to 1000 nM | 10 to 100 nM | 10 to 100 nM | 10 to 100 nM | 100 to 1000 nM | 100 to 1000 nM | < 10 nM | 10 to 100 nM | 10 to 100 nM | < 5000 nM | 100 to 1000 nM | 10 to 100 nM | 10 to 100 nM | – |
| CCn1c(-c2cccnc2[C@H](C)OC)c2c3cc(ccc31)-c1cc(O)cc(c1)C[C@H](NC(=O)[C@H](C(C)C)N(C)C(=O)CN(C)C(=O)[C@@H]1N[C@@H]1C(F)(F)F)C(=O)N1CCC[C@H](N1)C(=O)OCC(C)(C)C2 [Example 258] | 10 to 100 nM | 10 to 100 nM | 10 to 100 nM | 10 to 100 nM | < 10 nM | < 10 nM | 10 to 100 nM | 10 to 100 nM | < 10 nM | 10 to 100 nM | 10 to 100 nM | < 5000 nM | 100 to 1000 nM | 10 to 100 nM | 10 to 100 nM | – |
| CCn1c(-c2cccnc2[C@H](C)OC)c2c3cc(ccc31)-c1cc(O)cc(c1)C[C@H](NC(=O)[C@H](C(C)C)N(C)C(=O)CN(C)C(=O)[C@@H]1CN1CCCOC(C)=O)C(=O)N1CCC[C@H](N1)C(=O)OCC(C)(C)C2 (stereo partly drawn) [Example 267] | 100 to 1000 nM | 10 to 100 nM | 10 to 100 nM | 10 to 100 nM | 10 to 100 nM | – | 100 to 1000 nM | 100 to 1000 nM | 10 to 100 nM | < 10 nM | 10 to 100 nM | < 5000 nM | 100 to 1000 nM | < 10 nM | < 10 nM | – |
